Laboratory results from patent US8835447B2, “Method for treating androgen receptor positive cancers” (priority 2009, dated 2014).

Assay: Microsomal stability
Assay type: in vitro ADME
Conditions: 1 hour incubation with rat microsomes
Description: Five hit compounds, representing both the ARTIS and ARTIK categories (c6, c11, c17, c52 and c85), were selected for in vivo tests based on all of the previous assays. Compound c5 was rejected due to very low microsomal stability (<5% after 1 hour incubation with rat microsomes). The toxicity of the compounds was evaluated in a dose escalation assay in which male NIH Swiss mice (n=4) received three sequential intraperitoneal (i.p.) injections of each compound delivered in 3 day intervals. The first dose was 20-fold higher than the in vitro IC50 (20×IC50) for the compound in CWR22R cells recalculated based on mouse weight (see Example 1) and the second and third doses were 50×IC50 and 100×IC50, respectively. On the day after the last injection, half of the mice in each group were sacrificed for gross pathology examination and collection of blood for serum biochemistry assays, which include total protein, glucose, bilirubin, and creatinine levels, activity of liver enzymes, and ion concentrations. The remaining mice were sacrificed and evaluated similarly 7 days after the last compound injection. […] A minor decrease in serum glucose concentration (70-80% of control) was observed on the day after the last compound injection in almost all mice, but glucose levels were normal a week later (data not shown). […]

## CCCn1c2ccccc2c2cc(C(C)=O)ccc21 [c52]
  microsomal stability, compound left: 17%
